The source of these data is ChEMBL document CHEMBL3217658, “Scaffold-hopping from aminoglycosides to small synthetic inhibitors of bacterial protein biosynthesis using a pseudoreceptor model” (Medchemcomm, 2011).

Converted amounts (≈) assume the structure as drawn. The source made the active and inactive calls. The rule behind the calls is not given here.

By MIC is commonly meant the lowest concentration found to suppress growth. By IC50 is commonly meant the concentration at which inhibition is half-maximal. A lower IC50 goes with inhibition by little substance. By inhibition is commonly meant how much of the control response was suppressed.

Transient receptor potential cation channel subfamily V member 1, sequence (Q8NER1 whole entry): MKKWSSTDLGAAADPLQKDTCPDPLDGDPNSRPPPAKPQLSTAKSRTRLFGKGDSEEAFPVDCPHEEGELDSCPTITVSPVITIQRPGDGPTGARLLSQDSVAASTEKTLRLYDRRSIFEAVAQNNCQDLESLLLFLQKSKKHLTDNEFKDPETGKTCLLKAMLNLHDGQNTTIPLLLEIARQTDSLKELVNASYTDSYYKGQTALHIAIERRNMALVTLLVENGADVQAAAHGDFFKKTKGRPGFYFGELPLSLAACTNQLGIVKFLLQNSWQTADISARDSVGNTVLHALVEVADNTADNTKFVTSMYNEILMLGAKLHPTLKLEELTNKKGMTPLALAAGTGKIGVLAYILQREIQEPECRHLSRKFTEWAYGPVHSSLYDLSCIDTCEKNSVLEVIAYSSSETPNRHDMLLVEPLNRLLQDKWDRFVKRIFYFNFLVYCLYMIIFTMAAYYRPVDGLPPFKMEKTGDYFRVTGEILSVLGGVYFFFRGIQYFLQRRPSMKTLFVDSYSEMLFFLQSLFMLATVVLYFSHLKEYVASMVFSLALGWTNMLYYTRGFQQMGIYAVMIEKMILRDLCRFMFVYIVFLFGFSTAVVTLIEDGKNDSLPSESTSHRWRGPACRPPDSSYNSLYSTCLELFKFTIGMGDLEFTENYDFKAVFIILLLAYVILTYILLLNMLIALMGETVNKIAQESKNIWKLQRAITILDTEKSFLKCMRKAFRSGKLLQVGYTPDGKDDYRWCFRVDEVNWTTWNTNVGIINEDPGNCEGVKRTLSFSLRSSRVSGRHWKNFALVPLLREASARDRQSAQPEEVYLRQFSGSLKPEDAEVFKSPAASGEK

For the first assay, the system named is Bacillus subtilis. Kind of assay: Antibacterial activity against Bacillus subtilis 168 assessed as growth inhibition after 20 hrs by microtiter broth dilution method. Particulars: subsp. subtilis str. 168, 20 h. The format is functional. (In general: In broth dilution the organism is exposed to a series of concentrations in liquid medium.)
For the compound `COc1cc(CNCCc2c[nH]c3ccccc23)ccc1OCc1ccc(F)cc1`, the MIC is 63 µM (≈ 25.5 µg/mL).
As for `COc1cc(CNCCc2c[nH]c3ccccc23)ccc1OCc1ccc(Cl)nc1`, the MIC came out at 250 µM (≈ 105 µg/mL).
The same measure, in the same setting: for `COc1cccc(CNCCc2c[nH]c3ccccc23)c1OCc1ccccc1F` the value was 125 µM (≈ 50.6 µg/mL); for `COc1cc(CNC(=O)CCCC/C=C/C(C)C)ccc1O` [CAPSAICIN], 63 µM (≈ 19.2 µg/mL).

In a further assay the test system is Bacillus subtilis. Kind of assay: Antibacterial activity against Bacillus subtilis 168 assessed as growth inhibition at 0.5 to 500 uM after 20 hrs by microtiter broth dilution method. The format is functional, organism-based. Particulars: subsp. subtilis str. 168.
As to `COc1cc(CNCCc2c[nH]c3ccccc23)cc(Cl)c1OCC(N)=O`, the “growth inhibition (GI)” value was “inactive”.

A further assay addresses Transient receptor potential cation channel subfamily V member 1 (Homo sapiens, UniProt Q8NER1). Kind of assay: Inhibition of TRPV1-mediated membrane currents in human DRG neurons.
Conditions: not given
`NC[C@@H]1O[C@H](O[C@H]2[C@@H](O)[C@H](O[C@@H]3[C@@H](O)[C@H](N)C[C@H](N)[C@H]3O[C@H]3O[C@H](CN)[C@@H](O)[C@H](O)[C@H]3N)O[C@@H]2CO)[C@H](N)[C@@H](O)[C@@H]1O` [FRAMYCETIN] came in with a half-maximal inhibitory concentration (IC50) of 400 nM.

For a further assay, the system named is Escherichia coli. Put plainly: Binding affinity to Escherichia coli ribosomal A-site assessed as inhibition of GFP biosynthesis at 500 uM by transcription/translation assay relative to chloramphenicol.
Conditions: not given
Turning to `CC(O)CNCCNCc1cccc2ccccc12` (configuration not stated), the inhibition was 64%.
On the same count and under the same terms, for `CNCCCNCc1ccc(OCC(N)=O)c(OC)c1` the value was “inactive”.
Still for that read-out and setting: next, `CC(=O)N1[C@H](CO)CS[C@@H]1[C@H](O)[C@@H](O)[C@@H](O)[C@H](O)CO`: “inactive”; `NC(=O)c1ncn([C@H]2C[C@@H](CO)[C@H](O)[C@@H]2O)n1`: “inactive”.
Still for that read-out and setting: for `O=c1[nH]c(=O)n2c(c1[N+](=O)[O-])NC(C(O)C(O)C(O)CO)C2O` (configuration not stated) the value was 13%; for `COc1cccc(CNCCc2c[nH]c3ccccc23)c1OCc1ccccc1F`, 71%.
Consider `CC(O)CNCCNCc1ccccc1` (configuration not stated), for which the inhibition amounted to 36%.
Regarding `Nc1cc(NC2OC(CO)C(O)C(O)C2O)ccc1[N+](=O)[O-]` (configuration not stated), the inhibition came out at 61%.
Still for that read-out and setting: for `COc1cc(CNCCc2c[nH]c3ccccc23)cc(Cl)c1OCC(N)=O` the value was 82%; for `Nc1[nH]c(C2OC(CO)C(O)C2O)nc1C(=O)NCc1ccccc1` (configuration not stated), 22%; for `OCC(O)C(O)C(O)C(O)C1NNC(=S)NN1` (configuration not stated), “inactive”.
